# Experimental data reported in patent US12605402B2, “Therapeutic uses of oxidizing hypotonic acid solutions” (APR Applied Pharma Research SA, priority 2019, dated 2026).
# Where two headings read alike, the source gives them in different places.
# Assays:
# SARS-CoV-2 = assay type: cell-based; conditions: concentration 90% (solution), 63% (ethanol); for Virus Titer: virus control 3.5
compound,measurement,setting,value
CCO [Ethanol],toxicity to cells,Vero 76 cells,toxic to cells
same,LRV (log reduction value) compared to the virus control,SARS-CoV-2; Contact Time 3 min,>1.8
same,Virus Titer,SARS-CoV-2; Contact Time 3 min,<1.7 Log10 CCID50 of virus per 0.1 mL
same,LRV (log reduction value) compared to the virus control,SARS-CoV-2; Contact Time <1 min,>1.8
same,Virus Titer,SARS-CoV-2; Contact Time <1 min,<1.7 Log10 CCID50 of virus per 0.1 mL
